The results in this text go back to patent US6465429B1, “Antimicrobial cationic peptides” (priority 1995, dated 2002).

For this experiment, the system named is Candida albicans. The experiment in a line: MIC, broth dilution in LB-S. In kind it is cell-based. Conditions: Candida albicans (CAN105); Table 1a. Also on record: unit not given beside the values. On the procedure: The biological activity of the peptides can be determined by standard methods known to those of skill in the art, such as “minimal inhibitory concentration (MIC)” assay described in the present examples, whereby the lowest concentration at which no change in OD is observed for a given period of time is recorded as MIC. Alternatively, “fractional inhibitory concentration (FIC)” is also useful for determination of synergy between the peptides of the invention, or the peptides in combination with known antibiotics. FICs are performed by checkerboard titrations of peptides in one dimension of a microtiter plate, and of antibiotics in the other dimension, for example. The FIC is calculated by looking at the impact of one antibiotic on the MIC of the other and vice versa. […] Preferably, an FIC of less than 0.5 is obtained for synergism. As used herein, FIC can be determined as follows: [formula]
Briefly, cells were grown overnight at 37° C. in LB-S (Luria broth without any salt supplement) and diluted one in 10,000 in the same medium to give concentrations of about 10^4 to 10^5 CFU/ml. The broth dilutions were set up in a 96 well microtiter plate by putting 200 μl of LB-S containing the initial concentration of antibiotic or compound in column 1 and 100 μl of the same medium in columns 2-12. […] The next day the plates were scored for growth in the wells, and the MIC determined.
A general note: Broth dilution looks for growth in wells or tubes with falling amounts of substance.

On to KWKLFKKIGIGAVLKVLTTGLPALIS [CEME], for which the MIC result is recorded as “≧64”.
